From ChEMBL document CHEMBL5223174, “Design, synthesis, and biological evaluation of novel N-Benzyl piperidine derivatives as potent HDAC/AChE inhibitors for Alzheimer's disease” (Bioorg Med Chem, 2023)

Assays:
Histone deacetylase = assay type: cell-based, Homo sapiens; conditions: hela
Description: Inhibition of HDAC in human HeLa cell extracts

Acetylcholinesterase = Acetylcholinesterase (Electrophorus electricus, UniProt O42275); assay: Inhibition of electric eel AChE
Cholinesterase = Cholinesterase (Equus caballus, UniProt P81908); assay: Inhibition of equine serum BChE; assay type: cell-free
[1] = Selectivity index, ratio of IC50 for equine serum BChE to IC50 for electric eel AChE

Chain of Cholinesterase (P81908 whole entry): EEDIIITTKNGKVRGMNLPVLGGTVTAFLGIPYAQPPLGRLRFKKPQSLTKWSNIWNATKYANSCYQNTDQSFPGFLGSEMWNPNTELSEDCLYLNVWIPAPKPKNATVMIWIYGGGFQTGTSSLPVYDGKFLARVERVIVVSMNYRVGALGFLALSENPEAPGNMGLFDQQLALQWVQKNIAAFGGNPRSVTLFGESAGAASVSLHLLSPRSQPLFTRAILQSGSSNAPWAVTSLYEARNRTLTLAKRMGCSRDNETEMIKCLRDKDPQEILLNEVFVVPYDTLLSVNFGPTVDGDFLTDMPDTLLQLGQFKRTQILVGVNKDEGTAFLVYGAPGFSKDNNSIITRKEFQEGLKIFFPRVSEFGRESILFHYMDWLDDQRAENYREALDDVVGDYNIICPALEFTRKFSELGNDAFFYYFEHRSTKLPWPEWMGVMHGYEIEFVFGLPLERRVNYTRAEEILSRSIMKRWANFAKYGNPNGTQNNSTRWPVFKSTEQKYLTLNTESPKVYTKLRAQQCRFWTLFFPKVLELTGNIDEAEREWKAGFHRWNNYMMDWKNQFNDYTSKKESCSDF
Chain of Acetylcholinesterase (O42275 whole entry): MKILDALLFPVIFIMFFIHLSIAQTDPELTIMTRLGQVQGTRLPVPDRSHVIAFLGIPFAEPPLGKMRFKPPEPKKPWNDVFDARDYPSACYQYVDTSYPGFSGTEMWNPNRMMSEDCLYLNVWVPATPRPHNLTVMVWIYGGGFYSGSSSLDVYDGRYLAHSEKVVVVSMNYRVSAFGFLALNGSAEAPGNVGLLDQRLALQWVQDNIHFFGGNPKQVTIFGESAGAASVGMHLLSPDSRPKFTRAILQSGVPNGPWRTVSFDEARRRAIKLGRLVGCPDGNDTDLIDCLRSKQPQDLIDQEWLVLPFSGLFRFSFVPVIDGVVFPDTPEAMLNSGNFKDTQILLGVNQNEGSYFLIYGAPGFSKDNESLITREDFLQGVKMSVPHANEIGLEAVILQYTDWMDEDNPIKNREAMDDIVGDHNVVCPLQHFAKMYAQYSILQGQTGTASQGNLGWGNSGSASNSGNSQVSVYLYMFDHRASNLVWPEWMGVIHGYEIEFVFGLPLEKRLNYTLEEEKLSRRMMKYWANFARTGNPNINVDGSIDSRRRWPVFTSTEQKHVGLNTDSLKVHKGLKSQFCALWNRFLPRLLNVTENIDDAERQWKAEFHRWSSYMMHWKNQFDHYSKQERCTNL

Row | SMILES | IC50 (Histone deacetylase) [µM] | IC50 (Acetylcholinesterase) | IC50 (Cholinesterase) | IC50 (Acetylcholinesterase; read-out: IC50) [µM] | IC50 (Cholinesterase; read-out: IC50) [µM] | Ratio IC50 [1]
1 | Nc1ccccc1NC(=O)CCCCCCC(=O)NCC1CCN(Cc2ccccc2)CC1 | > 10 | Not Active | Not Active | – | – | –
2 | Nc1ccccc1NC(=O)CCCCCCCC(=O)NCC1CCN(Cc2ccccc2)CC1 | 1.14 | – | – | 11.5 | 13.8 | –
3 | O=C(NO)c1cccc(C(=O)NCC2CCN(Cc3ccccc3)CC2)c1 | 0.8 | Not Active | Not Active | – | – | –
4 | O=C(/C=C/c1ccc(C(=O)NO)cc1)NCC1CCN(Cc2ccccc2)CC1 | 2.1 | – | Not Active | 4.07 | – | > 10
5 | COc1cc(/C=C/C(=O)Nc2ccccc2N)ccc1C(=O)NCC1CCN(Cc2ccccc2)CC1 | 1.25 | – | – | 8.89 | 6.56 | –
6 | O=C(NO)c1ccc(S(=O)(=O)NCC2CCN(Cc3ccccc3)CC2)cc1 | 0.45 | – | Not Active | 3.22 | – | > 10
7 | O=C(NO)c1cccc(S(=O)(=O)NCC2CCN(Cc3ccccc3)CC2)c1 | 6.8 | – | Not Active | 19.2 | – | –
8 | Nc1ccccc1NC(=O)CCCCCC(=O)NCC1CCN(Cc2ccccc2)CC1 | > 10 | – | – | 7.06 | 6.19 | –
9 | Nc1ccccc1NC(=O)c1ccc(CNCC2CCN(Cc3ccccc3)CC2)cc1 | > 10 | – | – | 9.84 | 12.6 | –
10 | O=C(CCc1ccc(C(=O)NO)cc1)NCC1CCN(Cc2ccccc2)CC1 | > 10 | Not Active | Not Active | – | – | –
11 | O=C(NO)c1ccc(CNCC2CCN(Cc3ccccc3)CC2)cc1 | 1.42 | – | – | 6.03 | 13.2 | –
12 | O=C(CCCCCCCC(=O)NCC1CCN(Cc2ccccc2)CC1)NO | 0.43 | – | – | 26.2 | 13.7 | –
13 | Nc1ccccc1NC(=O)/C=C/c1ccc(C(=O)NCC2CCN(Cc3ccccc3)CC2)cc1 | 0.18 | – | Not Active | 13.8 | – | –
14 | Nc1ccccc1NC(=O)CCc1ccc(C(=O)NCC2CCN(Cc3ccccc3)CC2)cc1 | 0.46 | – | – | 9.13 | 13.4 | –
15 | COc1cc(CCC(=O)Nc2ccccc2N)ccc1C(=O)NCC1CCN(Cc2ccccc2)CC1 | > 10 | – | – | 31.3 | 10.6 | –
16 | O=C(NO)c1ccc(C(=O)NCC2CCN(Cc3ccccc3)CC2)cc1 | 0.14 | – | – | 39.7 | 3.28 | –

Row | SMILES | IC50 (Histone deacetylase) [µM] | IC50 (Acetylcholinesterase) | IC50 (Cholinesterase) | IC50 (Acetylcholinesterase; read-out: IC50) [µM] | IC50 (Cholinesterase; read-out: IC50) [µM] | Ratio IC50 [1]
17 | O=C(/C=C/c1cccc(C(=O)NCC2CCN(Cc3ccccc3)CC2)c1)NO | 0.067 | – | Not Active | 14.6 | – | –
18 | Nc1ccccc1NC(=O)c1ccc(CCC(=O)NCC2CCN(Cc3ccccc3)CC2)cc1 | > 10 | – | Not Active | 12.4 | – | –
19 | O=C(CCCCCCC(=O)NCC1CCN(Cc2ccccc2)CC1)NO | 0.59 | Not Active | – | – | 1.62 | –
20 | Nc1ccccc1NC(=O)c1ccc(/C=C/C(=O)NCC2CCN(Cc3ccccc3)CC2)cc1 | > 10 | – | – | 2.12 | 15.6 | > 10
21 | Nc1ccccc1NC(=O)c1cccc(C(=O)NCC2CCN(Cc3ccccc3)CC2)c1 | 2.13 | – | – | 32.6 | 7.96 | –
22 | Nc1ccccc1NC(=O)/C=C/c1cccc(C(=O)NCC2CCN(Cc3ccccc3)CC2)c1 | 1.62 | Not Active | Not Active | – | – | –
23 | Nc1ccccc1NC(=O)CCc1cccc(C(=O)NCC2CCN(Cc3ccccc3)CC2)c1 | 1.2 | – | – | 9.97 | 9.49 | –
24 | Nc1ccccc1NC(=O)c1ccc(S(=O)(=O)NCC2CCN(Cc3ccccc3)CC2)cc1 | > 10 | – | Not Active | 0.49 | – | > 102
25 | O=C(CCc1cccc(C(=O)NCC2CCN(Cc3ccccc3)CC2)c1)NO | 0.47 | Not Active | Not Active | – | – | –
26 | COc1cc(CCC(=O)NO)ccc1C(=O)NCC1CCN(Cc2ccccc2)CC1 | 0.17 | – | Not Active | 6.89 | – | > 10
27 | O=C(/C=C/c1ccc(C(=O)NCC2CCN(Cc3ccccc3)CC2)cc1)NO | 0.28 | – | Not Active | 8.18 | – | > 10
28 | O=C(CCCCCC(=O)NCC1CCN(Cc2ccccc2)CC1)NO | > 10 | – | Not Active | 32.8 | – | –
29 | COc1cc(/C=C/C(=O)NO)ccc1C(=O)NCC1CCN(Cc2ccccc2)CC1 | 0.02 | – | – | 24.6 | 25.2 | –
30 | O=C(CCc1ccc(C(=O)NCC2CCN(Cc3ccccc3)CC2)cc1)NO | 1 | Not Active | Not Active | – | – | –
31 | Nc1ccccc1NC(=O)c1cccc(S(=O)(=O)NCC2CCN(Cc3ccccc3)CC2)c1 | 1.28 | – | – | 7.41 | 5.23 | –
